The nature of data set [1]: Plasma triglyceride levels in rats. The data set is classed as in vivo. The following applies: plasma, 1 mg/kg/PO daily for two weeks. As for the experimental part: Experimental emphysema was induced in rats as described in Example 2. Three (3) weeks post injury animals were treated with vehicle (Capmul solution) or retinoids prepared in Capmul and dosed orally at 1, 3, and 10 mg/kg body weight. Animals were treated for 14 days prior to termination of study. Lung harvest and blood collection was performed as described in Example 2.
Quantitation of triglycerides contained in rat plasma was performed after using established procedures in a contact clinical laboratory facility. Briefly, plasma triglycerides were converted to dihdroxyacetone and H2 O2, by sequential treatment of plasma with lipase and glycerokinase according directions described by manufacturer of triglycerides/GPO kit (Boehringer Mannheim #1488872). H2 02 was quantitated calorimetrically in a Hitachi 911 Chemistry Analyzer. In rats normal triglyceride levels are 75-175 mg/dl.
Dosage was at 1 mg/kg/PO daily for two weeks. […] Therefore, it appears that RARα selective activity is linked to elevated triglyceride levels.

Data set [2] has as its system elastase-induced emphysema. The data set is described as follows: Alveolar repair in rat model of elastase-induced emphysema, intraperitoneal. In kind it is in vivo, male Sprague Dawley rats. The arrangement: Alveolar Area: unit not given here. On the procedure: Animals were divided into treatment groups of approximately eight. […] Three weeks post injury ATRA or a RAR selective agonist was dissolved in DMSO (20 mg/ml) and stored at -20 C. Fresh working stocks were prepared fresh daily by dilution in corn oil to a final concentration of 2 mg/ml. […] Control groups were challenged with elastase and 21 days later treated with Vehicle (DMSO/PBS) for 14 days. Animals were sacrificed 24 hours after the last dose of by exsanguination under deep anesthesia. Blood was collected at time of exanguination for analysis of changes in blood chemistry from respective treatments. The lungs were inflated with 10% neutral buffered formalin by intratracheal instillation at a constant rate (1 ml/gram body mass/min). The lung was excised and immersed in fixative for 24 hours prior to processing. Standard methods were used to prepare 5 um paraffin sections. Sections were stained with Hematoxylin and Eosin (H%E). Computerized Morphometric analysis was performed to determine the average alveolar size and alveolar number.

Experimental findings from patent publication US6300350A, “Treatment of emphysema using RARy selective retinoid agonists” (priority 2000, dated 2001) are described below.

A value given as a limit tells only on which side of the number the result lay.

As for `CCCCCCc1cc2c(cc1/C=C/c1ccc(C(=O)O)cc1)C(C)(C)CCC2(C)C` [RAR Agonist 3], the “triglyceride levels (in words)” value in data set [1] is on record as “do not cause elevation in the triglyceride levels”. In addition, in data set [1] (normal rat 75-175 mg/dl), the “[Triglyceride]” value is 92 mg/dL. Further, the “% Repair” value in data set [2] (0.5 mg/kg ip once daily, from 21 days post injury, 14 days) is on record as above 70%. The “Alveolar Area” value in data set [2] (0.5 mg/kg ip once daily, from 21 days post injury, 14 days, naive 1637 +/- 153, elastase + vehicle 3570 +/- 319) is recorded as 1929 +/- 150. The “alveolar repair (in words)” value in data set [2] (elastase-treated rats, 0.5 mg/kg ip) was “markedly induce alveolar repair”. Moreover, the “light micrographs of lung sections (in words)” value in data set [2] (rat lung damaged by elastase and then treated, compared to normal rat lung) is reported as “showed alveolar area similar to the normal rat lung”.
